Measurements published in patent publication US20240308998A1, “PYRROLOPYRIDONE DERIVATIVES USEFUL IN THE TREATMENT OF CANCER” (Tay Therapeutics Limited, priority 2021, published 2024).
pIC50: −log10 of the molar value.

Columns and labels:
[1] = Intrinsic clearance in mouse liver microsomes; format: in vitro ADME; conditions: 1 uM, NADPH
Method: A 50 mM stock solution (in DMSO) was prepared for the compound. From the stock solution, a working solution of 0.5 mM was prepared by diluting the compound in DMSO. This concentration of working solution was prepared considering a final concentration of 1 uM with 0.1% DMSO. The compound (1 uL of working solution) was spiked in PBS with pH 7.4 (22 uL) at a concentration of 1 uM. Subsequently, 110 uL of 10 mM NADPH was added (as a co-factor). The sample was incubated at 37° C. for 15 min. Following this, pre-warmed mouse liver microsomes (27.5 uL; final protein conc. 0.5 mg/mL) were added. The samples were then incubated at 37° C. Aliquots of samples were withdrawn at 0, 5, 15, 30, 45 and 60 min. The reaction was stopped by using chilled acetonitrile containing internal standard. The samples were centrifuged and the supernatants analysed by LC-MS/MS. The percent compound remaining at each time point was calculated with respect to that of the 0 min sample. The data were then analysed to calculate half-life and intrinsic clearance (CLint). Note that control samples were run without NADPH and blank samples were prepared using DMSO without the test compound.

[2] = biological target: T1, BRD4 BD2 (Homo sapiens, UniProt O60885); test: NanoBRET bromodomain assay, BRD4 BD2; format: cell-based; conditions: for Fold selectivity BRD4 BD1/BD2: IC50 BD1/IC50 BD2; for pIC50: NanoBRET, HEK293 cells transfected with NanoLuc-BRD4-BD2
T1 construct: HEK293 cells were transfected using NanoLuc-BRD4-BD1 or NanoLuc-BRD4-BD2 fusion vectors; host or cells: HEK293
Outline: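 HEK293 cells transfected with NanoLuc-BRD4-BD2 fusion for 20-24 h, then treated with compound plus 1x tracer for 2 h at 37° C. Donor 450 nm / acceptor 610 nm emissions converted to background-corrected mBU; IC50 by nonlinear regression; selectivity as IC50 BD1/IC50 BD2.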

[3] = Mouse plasma stability; format: in vitro ADME; conditions: 10 μM in mouse plasma, 37° C.
Method: The stock solution of compound (10 or 50 mM) was prepared in DMSO. From the stock solution, a working solution of compound (500 uM) was prepared in DMSO (100%). To 735 μL of mouse plasma, 15 μL of working solution of compound was added—resulting in a final concentration of 10 μM (2% DMSO) for the compound. The sample was then incubated at 37° C. Aliquot was withdrawn at time-points—0, 15, 30, 60, 90 and 120 mins. The reaction was stopped by using chilled acetonitrile containing internal standard (IS). The samples were centrifuged and the supernatants analyzed using LC-MS/MS. The percent remaining of the compound at each time point was calculated with respect to the control sample (0 min time-point).

[4] = biological target: T2, BRD4 BD1 (Homo sapiens, UniProt O60885); test: NanoBRET bromodomain assay, BRD4 BD1; format: cell-based; conditions: HEK293 cells transfected with NanoLuc-BRD4-BD1
T2 construct: HEK293 cells were transfected using NanoLuc-BRD4-BD1 or NanoLuc-BRD4-BD2 fusion vectors; host or cells: HEK293
Outline: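 Transfected HEK293 cells expressing NanoLuc-BRD4-BD1 were incubated with 1x tracer and serially diluted compound for 2 h at 37 °C, then given Nano-Glo substrate plus extracellular NanoLuc inhibitor. Donor 450 nm and acceptor 610 nm emissions were converted to background-corrected mBU, and IC50 was derived by nonlinear regression.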

| SMILES | Mouse Microsomal Stability (intrinsic clearance) [1] | Fold selectivity BRD4 BD1/BD2 [2] | pIC50 [2] | Mouse Plasma Stability % remaining at 120 minutes [3] | pIC50 [4] |
| --- | --- | --- | --- | --- | --- |
| Cc1cccc(C)c1Oc1cn(C)c(=O)cc1-c1cn(C)c(=O)c2[nH]c(-c3ncc(C(F)(F)F)[nH]3)cc12 [Example 3, 4-(5-(2,6-dimethylphenoxy)-1-methyl-2-oxo-1,2-dihydropyridin-4-yl)-6-methyl-2-(5-(trifluoromethyl)-1H-imidazol-2-yl)-1,6-dihydro-7H-pyrrolo[2,3-c] pyridin-7-one] | 0.5 ml/min/g liver | xxx (Fold >200) | ≥ 7.30 | 77% | < 6.00 |
| Cc1cnc(-c2cc3c(-c4cc(=O)n(C)cc4Oc4c(C)cccc4C)cn(C)c(=O)c3[nH]2)[nH]1 [Example 1, 4-(5-(2,6-dimethylphenoxy)-1-methyl-2-oxo-1,2-dihydropyridin-4-yl)-6-methyl-2-(5-methyl-1H-imidazol-2-yl)-1,6-dihydro-7H-pyrrolo [2,3-c] pyridin-7-one] | 0.7 ml/min/g liver | xxx (Fold >200) | ≥ 7.30 | 95% | < 6.00 |
| CCNC(=O)c1cc2c(-c3ccn(C)c(=O)c3Oc3c(C)cc(F)cc3C)cn(C)c(=O)c2[nH]1 [Comparative Example A, reference compound] | 0.9 ml/min/g liver | xx (Fold >50 and ≤200) | 6.70 to 7.30 | 7% | < 6.00 |
| Cc1cccc(C)c1Oc1cn(C)c(=O)cc1-c1cn(C)c(=O)c2[nH]c(-c3ncc[nH]3)cc12 [Example 2, 4-(5-(2,6-dimethylphenoxy)-1-methyl-2-oxo-1,2-dihydropyridin-4-yl)-2-(1H-imidazol-2-yl)-6-methyl-1,6-dihydro-7H-pyrrolo [2,3-c] pyridin-7-one] | 0.9 ml/min/g liver | xx (Fold >50 and ≤200) | ≥ 7.30 | 100% | < 6.00 |
